Where only a bound is given, the exact number is not on record here.

For experiment [1], the target named is T1, CYP11B1 (Homo sapiens, UniProt P15538).
T1 sequence (P15538 25-503): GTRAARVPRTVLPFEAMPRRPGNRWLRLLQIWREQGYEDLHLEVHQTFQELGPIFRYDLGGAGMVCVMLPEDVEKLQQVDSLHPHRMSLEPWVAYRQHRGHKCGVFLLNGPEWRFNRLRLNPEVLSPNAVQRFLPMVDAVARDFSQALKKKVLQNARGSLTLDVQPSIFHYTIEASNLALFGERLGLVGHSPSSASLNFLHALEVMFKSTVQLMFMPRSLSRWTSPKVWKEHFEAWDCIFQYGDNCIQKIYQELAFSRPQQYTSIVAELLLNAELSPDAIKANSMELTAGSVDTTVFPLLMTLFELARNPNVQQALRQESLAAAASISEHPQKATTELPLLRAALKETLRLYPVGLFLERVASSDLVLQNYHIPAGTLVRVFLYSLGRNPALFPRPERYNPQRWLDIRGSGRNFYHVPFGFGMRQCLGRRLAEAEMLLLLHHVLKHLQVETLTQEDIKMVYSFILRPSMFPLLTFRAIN
Briefly: biochemical.

In experiment [2] the target is T2, CYP11B2 (Homo sapiens, UniProt P19099).
T2 sequence (P19099 25-503): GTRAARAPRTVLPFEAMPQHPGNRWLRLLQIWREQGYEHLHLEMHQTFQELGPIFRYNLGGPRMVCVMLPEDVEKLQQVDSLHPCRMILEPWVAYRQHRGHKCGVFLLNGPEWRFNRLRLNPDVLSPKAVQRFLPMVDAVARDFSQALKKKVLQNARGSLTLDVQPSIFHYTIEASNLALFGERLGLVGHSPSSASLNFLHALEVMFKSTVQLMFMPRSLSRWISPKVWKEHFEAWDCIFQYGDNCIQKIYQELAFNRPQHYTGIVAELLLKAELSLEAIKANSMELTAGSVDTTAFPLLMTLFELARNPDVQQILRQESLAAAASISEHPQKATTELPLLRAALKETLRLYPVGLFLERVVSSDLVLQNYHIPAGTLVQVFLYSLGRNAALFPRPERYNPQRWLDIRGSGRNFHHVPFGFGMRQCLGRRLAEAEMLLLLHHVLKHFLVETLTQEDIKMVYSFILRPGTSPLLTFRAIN
The experiment in a line: biochemical.

Experiment [3] has as its system NCI-H295R human adrenocortical cancer cell line. The conditions noted are these: NCI-H295R cells.
The subject of experiment [4] is CYP11B2. The conditions noted are these: read-out: reported IC50, CYP11B2; in-vitro studies; cited from earlier work.
Experiment [5] deals with T3, CYP11A1 (Homo sapiens, UniProt P05108).
For experiment [6], the target named is T3, CYP11A1. Briefly: biochemical.
Experiment [7] has as its system CYP11B1. The conditions noted are these: read-out: reported IC50, CYP11B1; in-vitro studies; cited from earlier work.

T3 sequence (P05108 40-521): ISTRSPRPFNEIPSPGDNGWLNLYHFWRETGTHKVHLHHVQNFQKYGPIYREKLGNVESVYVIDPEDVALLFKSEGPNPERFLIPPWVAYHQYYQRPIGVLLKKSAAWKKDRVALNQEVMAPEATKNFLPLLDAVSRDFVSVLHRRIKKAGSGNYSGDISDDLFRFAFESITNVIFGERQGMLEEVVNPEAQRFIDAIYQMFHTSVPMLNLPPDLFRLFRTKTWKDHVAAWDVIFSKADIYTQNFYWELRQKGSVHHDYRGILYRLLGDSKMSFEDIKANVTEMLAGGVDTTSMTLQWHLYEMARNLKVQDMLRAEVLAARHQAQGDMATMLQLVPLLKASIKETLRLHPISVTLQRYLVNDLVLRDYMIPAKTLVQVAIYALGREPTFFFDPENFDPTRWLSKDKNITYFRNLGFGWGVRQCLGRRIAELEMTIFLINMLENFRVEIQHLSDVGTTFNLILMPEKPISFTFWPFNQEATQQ

Usually Kd stands for the equilibrium constant for the complex coming apart. Turning to `C[C@]12CC[C@H]3[C@@H](CCC4=CC(=O)CC[C@@]43C)[C@@H]1CC[C@@H]2C(=O)CO` [DOC, 11-deoxycorticosterone], the Kd stood at 420 nM in experiment [1] and 270 nM in experiment [2].

By IC50 is commonly meant the concentration that gives 50% inhibition. One may read the inhibition as the relative decrease from the control value, in per cent. A low value points to a weak effect. Consider `N#Cc1ccc([C@H]2CCc3cncn32)c(F)c1` [LCI699, Osilodrostat], for which, in experiment [3] (0-1000 nM LCI699, 24 h), the “aldosterone production, % of baseline” value came to 2 ± 3%; the androstenedione level result is “remained unchanged”; the “corticosterone, % of the baseline” value amounted to 1 ± 2%; the “cortisol production, % of baseline” value was determined as 13 ± 4%. Besides, the 11-deoxycortisol level entry in experiment [3] (higher concentrations of LCI699, changes did not reach statistical significance) is “appeared to increase”. Further, in experiment [4], the IC50 is […]. Moreover, the inhibition in experiment [5] is < 25%. Further, in experiment [6], binding was characterised by a dissociation constant (Kd) of 18800 nM. The IC50 in experiment [7] is […].

(Values after publication PMC10757358 (The Journal of steroid biochemistry and molecular biology, 2023).)
